Test results as given in US10272110B2, “Methods for promoting HSC engraftment” (CHILDREN'S MEDICAL CENTER CORPORATION, priority 2006, dated 2019).

Legend:
mouse ES cells = assay: ES cell hematopoietic differentiation assays (M3434 methylcellulose and OP9 colony assays); type: cell-based
Experimental: ES cell hematopoietic differentiation assays were performed as previously described. […] M3434 methylcellulose colony forming and OP9 colony assays were conducted on day 6 and analyzed at […], respectively. Colony type was identified by morphological analysis; duplicate chemical exposures were averaged to determine the reported colony number (n=3 replicates minimum).

wnt activity = wnt activity in kidney marrow of irradiated Top:dGFP adults; type: in vivo, zebrafish; conditions: day three post irradiation
Experimental: To determine if prostaglandin pathway manipulation can alter wnt activity in the kidney marrow repopulation in the adult, the effects of dmPGE2 and indomethacan was examined further in Top:dGFP lines. […] FIG. 14. To discern whether modulation of prostaglandin signaling can modify the wnt mediated effects on kidney marrow recovery following irradiation, wnt genes were activated by heat shock at 38° C. at two days post irradiation and then. exposure to prostaglandin pathway drugs at one day post heat shock. The hs:wnt8-GFP fish were exposed to indomethacin, while the dkk1, axin, and dnTCF transgenic fish were exposed to dmPGE2. Whole kidney marrow was analyzed by FACS on day ten post-irradiation.

vasculature (flk1) = conditions: zebrafish embryos, 36 hpf
Experimental: Wild-type age-matched embryos were arrayed into 48-well plates (˜5 embryos/well) of individual test compounds and exposed from 3-somites until 36 hpf. Three compound libraries were utilized: NINDS Custom Collection (1040), SpecPlus Collection (960) and BIOMOL ICCB Known Bioactives (480). […] In situ hybridization for runx1 and cmyb was performed to assess HSCs. Compounds were retested at 10 μM, 20 μM, and 50 μM. Stem cell specificity was assessed using flk1 at 36 hpf. PGE2, PGI2, dmPGE2 and all cox inhibitors (Sigma) were used at 10 μM to 20 μM.

repopulating HSCs = assay: Limiting dilution competitive transplantation; type: in vivo, mouse
Text: Zhang & Lodish, 103 Blood 2513-21 (2004). WBM (CD45.1) exposed to dmPGE2 ex vivo was mixed independently at varying doses with a fixed number of untreated competitor cells (CD45.1/CD45.2) and injected into congenic recipient mice (CD45.2). Peripheral blood was obtained at six, twelve, and twenty-four weeks post-transplantation and examined by FACS to determine the contribution of treated-test cells to hematopoietic repopulation (FIGS. 9E-9J). Positive reconstitution was defined as test cell multilineage chimerism >5% (FIGS. 9F, H, I). […] At six weeks, the calculated frequency of engrafting cells per 10^6 WBM cells was enhanced 3.3-fold (p=0.005) in the recipients of dmPGE2-treated WBM, and the frequency of short-term repopulating HSCs was 4-fold (p=0.002) higher at twelve weeks post-transplant (FIG. 8E, 8F, FIG. 9G). At twenty-four weeks, the frequency of long-term repopulating HSCs was 2.3-fold enhanced (p=0.05) in recipients of dmPGE2-treated cells (FIG. 8F, FIG. 9J). […] No decline in the contribution of dmPGE2-treated HSCs to hematopoiesis was observed.
WBM from CD45.1 C57Bl/6 mice was incubated with dmPGE2 or EtOH control ex vivo as described. Treated-test cells were independently transplanted into irradiated CD45.2 recipients (n=5/variable×2) with untreated CD45.1/CD45.2 competitor at the following ratios: 15,000:200,000 (0.075:1), 50,000:200,000 (0.25:1), 200,000:200,000 (1:1), 2,000,000:200,000 (10:1). Peripheral blood (PB) was obtained at six, twelve, and twenty-four weeks post-transplantation, and white blood cells were FACS-analyzed to determine test reconstitution for each series of treatment populations. Frequency of PB chimerism >5% was used to calculate the number of repopulating cells using the L-Calc program (Stem Cell Technologies). For twelve-week and twenty-four-week PB samples, multilineage reconstitution was measured by FACS analysis as above.

WBM cells = assay: Homing of CDFA-labeled WBM to the BM niche; type: in vivo, mouse; conditions: twelve hours post-transplantation, p=0.83
[1] = system: CFU-S from murine bone marrow cells; assay: Murine colony-forming units-spleen (CFU-S); type: in vivo, mouse
Experimental: Two independent BM samples were treated (n=5/treatment×2 replicates) for each variable. Recipient mice were lethally irradiated with a split dose of 10 Gy. 6×10^4 unfractionated dmPGE2 or control-treated BM cells were injected retro-orbitally into irradiated recipient mice. Spleens were dissected on day eight or twelve, weighed and fixed with Bouin's solution; hematopoietic colonies per spleen were counted. 1×10^5 cells/recipient were transplanted after treatment with the cox inhibitors. FACS sorted ckit^+sca1^+lineage^− BM cells were treated as above and transplanted at a dose of either 100 cells/recipient or 300 cells/recipient.

[2] = system: peripheral blood and bone marrow WBC; assay: 5-Fluorouracil bone marrow injury; type: in vivo, mouse
Experimental: Mice were treated with 5-FU (150 mg/kg) as described. Venezia et al., 2004. […] Peripheral blood was obtained on day seven and day fourteen, quantified and subjected to multilineage FACS analysis using antibodies (eBioscience) to B220/IgM (B-lymphoid), CD4/8 (T-lymphoid), Mac1/Gr1 (myeloid), Ter119/CD71 (erythroid) and ckit/sca1 (stem/progenitor). Mice were sacrificed on day 16, and bone marrow was isolated, quantified and analyzed by FACS.

## CCCCC(C)(C)[C@H](O)/C=C/[C@H]1[C@H](O)CC(=O)[C@@H]1C/C=C\CCCC(=O)O [dmPGE2, 16,16-dimethyl-PGE2]
Mouse ES cells; 10 μM and 20 μM
  OP9, definitive erythroid (dE) and granulocyte/monocyte (GM) colonies: increased in a dose-dependent manner
Mouse ES cells; 100 μM
  toxicity to ES cells: toxic
Mouse ES cells; dmPGE2 10 μM, 20 μM, methylcellulose
  number of multipotent GEMM colonies, enhancement: 2.9 fold
Mouse ES cells; dmPGE2 10 μM, indomethacin 100 μM, methylcellulose and OP9
  rescue of indomethacin inhibition of colony formation: rescued
Wnt activity
  wnt activity (GFP) in kidney marrow of Top:dGFP adults: significantly enhanced wnt activity
Vasculature (flk1)
  effect on vasculature / flk1 staining (in words): minimal effects on the vasculature
Repopulating HSCs; 6 wk, test cell dose 15000, competitor 200000
  Mean % CD45.1 chimerism (±SD): 16.9 ± 19.5%
Repopulating HSCs; 6 wk, test cell dose 15000, competitor 200000, 10 analyzed
  Animals with >5% CD45.1: 7
Repopulating HSCs; 6 wk, test cell dose 50000, competitor 200000
  Mean % CD45.1 chimerism (±SD): 22.7 ± 24.2%
Repopulating HSCs; 6 wk, test cell dose 50000, competitor 200000, 10 analyzed
  Animals with >5% CD45.1: 8
Repopulating HSCs; 6 wk, test cell dose 200000, competitor 200000
  Mean % CD45.1 chimerism (±SD): 41.9 ± 17.2%
Repopulating HSCs; 6 wk, test cell dose 200000, competitor 200000, 10 analyzed
  Animals with >5% CD45.1: 10
Repopulating HSCs; 6 wk, test cell dose 2000000, competitor 200000
  Mean % CD45.1 chimerism (±SD): 85.1 ± 3.1%
Repopulating HSCs; 6 wk, test cell dose 2000000, competitor 200000, 10 analyzed
  Animals with >5% CD45.1: 10
Repopulating HSCs; 12 wk, test cell dose 15000, competitor 200000
  Mean % CD45.1 chimerism (±SD): 15.1 ± 22.2%
Repopulating HSCs; 12 wk, test cell dose 15000, competitor 200000, 10 analyzed
  Animals with >5% CD45.1: 5
Repopulating HSCs; 12 wk, test cell dose 50000, competitor 200000
  Mean % CD45.1 chimerism (±SD): 18.1 ± 22.2%
Repopulating HSCs; 12 wk, test cell dose 50000, competitor 200000, 10 analyzed
  Animals with >5% CD45.1: 8
Repopulating HSCs; 12 wk, test cell dose 200000, competitor 200000
  Mean % CD45.1 chimerism (±SD): 40.8 ± 28.7%
Repopulating HSCs; 12 wk, test cell dose 200000, competitor 200000, 10 analyzed
  Animals with >5% CD45.1: 10
Repopulating HSCs; 12 wk, test cell dose 2000000, competitor 200000
  Mean % CD45.1 chimerism (±SD): 87.8 ± 4.0%
Repopulating HSCs; 12 wk, test cell dose 2000000, competitor 200000, 10 analyzed
  Animals with >5% CD45.1: 10
Repopulating HSCs; 24 wk, test cell dose 15000, competitor 200000
  Mean % CD45.1 chimerism (±SD): 10.2 ± 10.3%
Repopulating HSCs; 24 wk, test cell dose 15000, competitor 200000, 9 analyzed
  Animals with >5% CD45.1: 4
Repopulating HSCs; 24 wk, test cell dose 50000, competitor 200000
  Mean % CD45.1 chimerism (±SD): 14.3 ± 16.6%
Repopulating HSCs; 24 wk, test cell dose 50000, competitor 200000, 10 analyzed
  Animals with >5% CD45.1: 7
Repopulating HSCs; 24 wk, test cell dose 200000, competitor 200000
  Mean % CD45.1 chimerism (±SD): 39.1 ± 31.0%
Repopulating HSCs; 24 wk, test cell dose 200000, competitor 200000, 10 analyzed
  Animals with >5% CD45.1: 10
Repopulating HSCs; 24 wk, test cell dose 2000000, competitor 200000
  Mean % CD45.1 chimerism (±SD): 90.7 ± 4.0%
Repopulating HSCs; 24 wk, test cell dose 2000000, competitor 200000, 10 analyzed
  Animals with >5% CD45.1: 10
Repopulating HSCs; six weeks post-transplant, Poisson statistics
  calculated frequency of engrafting cells per 10^6 WBM cells, enhancement vs control: 3.3 fold
Repopulating HSCs; twelve weeks post-transplant, Poisson statistics
  frequency of short-term repopulating HSCs, higher vs control: 4 fold
Repopulating HSCs; twelve- and twenty-four-week analyses
  lineage character of reconstitution in recipients: multilineage
Repopulating HSCs; twenty-four weeks post-transplant, Poisson statistics
  frequency of long-term repopulating HSCs, enhancement vs control: 2.3 fold
Repopulating HSCs; up to twenty-four weeks
  contribution of treated HSCs to hematopoiesis over time: No decline
WBM cells
  homing to the BM niche vs control: no significant difference
[1]; KSL BM cells, 100 or 300 cells per recipient
  splenic weight and CFU-S12 in recipients of treated KSL cells: significantly increased
[1]; Kit+Sca+Lin−, 100 cells transplanted, EtOH 3.0 (1.4)
  CFU-S12 Colony Number: 6.2 (1.2)
[1]; Kit+Sca+Lin−, 300 cells transplanted, EtOH 5.0 (1.1)
  CFU-S12 Colony Number: 11.0 (1.7)
[1]; WBM ex vivo 1 μM/10^6 cells
  CFU-S8 colonies: enhanced
[1]; WBM ex vivo 1 μM/10^6 cells, 6×10^4 cells transplanted
  number of CFU-S12, increase: three-fold
[1]; Whole Marrow, 6000 cells transplanted, 1 μM/10^6 cells ex vivo, day twelve, EtOH 5.8 (2.6)
  CFU-S12 Colony Number: 15.2 (2.2)
[2]; administration after 5FU
  BM recovery following 5FU treatment: significantly enhanced BM recovery
[2]; in vivo exposure, IP, 1 mg/kg
  peripheral blood (day 14) and bone marrow (day 16) WBC counts after 5-FU injury: enhanced WBC counts
